For 56 compounds, IC50 results are on record in patent US9718790B2, “Triazine derivative and pharmaceutical composition having an analgesic activity comprising the same” (SHIONOGI & CO., LTD., priority 2010, dated 2017).

The target in this test is human P2X3 receptor (Homo sapiens (Human), UniProt P56373). The test can be described thus: Evaluation of human P2X3 receptor inhibitory activity (Fluo-3 calcium fluorescence, FDSS 3000, ATP stimulation).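 Note: stimulus was 50 nM ATP with fluorescence followed for 3 min, and the response per well was peak post-ATP fluorescence divided by the reading at measurement start.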 Format: cell-based. The following applies: human P2X3 receptor, Test Example 1.
Sequence of human P2X3 receptor (P56373 whole entry): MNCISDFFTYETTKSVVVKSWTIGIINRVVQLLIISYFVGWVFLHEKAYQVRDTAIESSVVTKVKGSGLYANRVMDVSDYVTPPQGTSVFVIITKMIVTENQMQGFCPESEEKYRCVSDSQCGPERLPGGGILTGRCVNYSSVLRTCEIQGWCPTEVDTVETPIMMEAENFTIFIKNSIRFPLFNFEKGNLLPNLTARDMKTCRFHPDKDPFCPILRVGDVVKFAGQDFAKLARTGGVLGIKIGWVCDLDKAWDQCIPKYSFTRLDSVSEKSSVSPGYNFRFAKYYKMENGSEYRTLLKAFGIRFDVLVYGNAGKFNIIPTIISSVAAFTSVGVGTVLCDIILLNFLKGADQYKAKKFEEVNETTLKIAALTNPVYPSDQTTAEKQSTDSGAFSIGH

What is called IC50 is the concentration that inhibits the measured activity by half. With `CCn1c(=O)[nH]/c(=N\c2ccc(Oc3ccc(NC(C)=O)nc3)cc2)n(Cc2ccc(Cl)cc2)c1=O` [Compound I-2241], the IC50 turned out to be 1 nM.
In the case of `CCC(=O)Nc1ccc(Oc2ccc(/N=c3\[nH]c(=O)n(CC)c(=O)n3Cc3ccc(Cl)cc3)cc2)cn1` [Compound I-2242] it was under 4 nM; in that of `CCn1c(=O)[nH]/c(=N\c2ccc(Oc3ccc(NC(=O)NC4CC4)nc3)cc2)n(Cc2ccc(Cl)cc2)c1=O` [Compound I-2243], 6 nM.
With `CCn1c(=O)[nH]/c(=N\c2ccc(Oc3ccnc(CN(C)C)c3)cc2)n(Cc2ccc(Cl)cc2)c1=O` [Compound I-2244] the figure was 59 nM; with `CCn1c(=O)[nH]/c(=N\c2ccc(Oc3ccnc(CNC)c3)cc2)n(Cc2ccc(Cl)cc2)c1=O` [Compound I-2245], 108 nM; with `CCn1c(=O)[nH]/c(=N\[C@H]2CC[C@H](Oc3ccnc(C(=O)NC)c3)CC2)n(Cc2ccc(Cl)cc2)c1=O` [Compound I-2246], 790 nM.
For the compound `CCn1c(=O)[nH]/c(=N\c2ccc(Oc3cc(C(=O)OC)sn3)cc2)n(Cc2ccc(Cl)cc2)c1=O` [Compound I-2247], the IC50 came out at 3 nM.
On to `O=C(O)c1cc(Oc2ccc(/N=c3\[nH]c(=O)n(CC(F)F)c(=O)n3Cc3ccc(Cl)cc3)cc2)ccn1` [Compound I-2248], for which the half-inhibitory concentration (IC50) worked out at 7 nM.
With `CCn1c(=O)[nH]/c(=N\c2ccc(Oc3cc(C(=O)O)sn3)cc2)n(Cc2ccc(Cl)cc2)c1=O` [Compound I-2249] the figure was 6 nM; with `CCn1c(=O)[nH]/c(=N\c2ccc(Oc3cc(C(=O)O)ccn3)cc2)n(Cc2ccc(Cl)cc2)c1=O` [Compound I-2250], 8 nM.
With `CCn1c(=O)[nH]/c(=N\c2ccc(Oc3ccnc(C(=O)NC)c3)c(OC)c2)n(Cc2ccc(Cl)cc2)c1=O` [Compound I-2251] the figure was 5 nM.
As to `COc1ccc(CNc2nc(=O)n(Cc3ccc(Cl)cc3)/c(=N/c3ccc(OC(C)C)cc3)[nH]2)c(OC)c1` [Compound I-2252], the IC50 worked out at 769 nM.
With `CC(C)Oc1ccc(/N=c2\[nH]c(=S)n(C(C)C)c(=O)n2Cc2ccc(Cl)cc2)cc1` [Compound I-2254, 1-(4-chlorobenzyl)-3-isopropyl-6-(4-isopropoxyphenylimino)-4-thioxo-1,3,5-triazinane-2-one] the figure was 78 nM; with `CC(C)Oc1ccc(-n2c(NCc3ccc(Cl)cc3)nc(=S)n(C(C)C)c2=O)cc1` [Compound I-2255], 543 nM; with `CC(C)Oc1ccc(/N=c2\[nH]c(=S)n(C(C)C)c(=O)n2Cc2ccc(Cl)cc2)cc1Cl` [Compound I-2257, 1-(4-chlorobenzyl)-3-isopropyl-6-(3-chloro-4-isopropoxyphenylimino)-4-thioxo-1,3,5-triazinane-2-one], 151 nM.
In the case of `CCn1c(=S)[nH]/c(=N\c2ccc(Oc3ccnc(O)c3)cc2)n(Cc2ccc(Cl)cc2)c1=O` [Compound I-2258] it was 3 nM.
In the case of `CCn1c(=S)[nH]/c(=N\c2ccc(Oc3cncc(C(=O)OC)c3)cc2)n(Cc2ccc(Cl)cc2)c1=O` [Compound I-2262, 1-(4-chlorobenzyl)-3-ethyl-6-[4-(5-methoxycarbonyl-3-pyridyloxy)phenylimino]-4-thioxo-1,3,5-triazinane-2-one] it was 17 nM; in that of `CCn1c(=S)[nH]/c(=N\c2ccc(Oc3cncc(C(=O)O)c3)cc2)n(Cc2ccc(Cl)cc2)c1=O` [Compound I-2263], 4 nM; in that of `CCn1c(SC)n/c(=N\c2ccc(Oc3cncc(C(=O)OC)c3)cc2)n(Cc2ccc(Cl)cc2)c1=O` [Compound I-2264, 1-(4-chlorobenzyl)-3-ethyl-4-methylthio-6-[4-(5-methoxycarbonyl-3-pyridyloxy)phenylimino]-1,3,5-triazine-2-(1H)-one], 558 nM.
As for `CCn1c(=O)[nH]/c(=N\c2ccc(O[C@@H]3C[C@@H](C(=O)OC)N(C(=O)OC(C)(C)C)C3)cc2)n(Cc2ccc(Cl)cc2)c1=O` [Compound I-2265], the IC50 is 299 nM.
In the case of `COC(=O)c1cccc(Oc2ccc(/N=c3\[nH]c(=O)n(C)c(=O)n3Cc3ccc(C)cc3)cc2)n1` [Compound I-2266] it was 44 nM; in that of `CCn1c(=O)[nH]/c(=N\c2ccc3nc(N(C)C)sc3c2)n(Cc2ccc(Cl)cc2)c1=O` [Compound I-2267], 331 nM; in that of `Cc1ccc(Cn2c(=O)n(C)c(=O)[nH]/c2=N\c2ccc(Oc3cccc(C(=O)O)n3)cc2)cc1` [Compound I-2268], 6 nM.
Take `CCn1c(=O)[nH]/c(=N\c2ccc(Oc3ccc(C(=O)OC)nn3)cc2)n(Cc2ccc(Cl)cc2)c1=O` [Compound I-2269]: the half-inhibitory concentration (IC50) was determined as 2 nM.
With `CCn1c(=O)[nH]/c(=N\c2ccc(Oc3cncc(C(=O)OC)n3)cc2)n(Cc2ccc(Cl)cc2)c1=O` [Compound I-2270] the figure was under 4 nM; with `COC(=O)c1cccc(Oc2ccc(/N=c3\[nH]c(=O)n(C)c(=O)n3Cc3ccc(Cl)cc3)cc2)n1` [Compound I-2271], 36 nM.
In the case of `CCn1c(=O)[nH]/c(=N\c2ccc(Oc3ccc(C(=O)O)nn3)cc2)n(Cc2ccc(Cl)cc2)c1=O` [Compound I-2273] it was 12 nM; in that of `Cn1c(=O)[nH]/c(=N\c2ccc(Oc3cccc(C(N)=O)n3)cc2)n(Cc2ccc(Cl)cc2)c1=O` [Compound I-2274], 5 nM; in that of `CCn1c(=O)[nH]/c(=N\c2ccc(Oc3ccc(C(=O)OC)nc3)cc2)n(Cc2ccc(Cl)cn2)c1=O` [Compound I-2275], 10 nM.
Regarding `CC(C)Oc1ccc(/N=c2\ncn(C(C)C)c(=O)n2Cc2ccc(Cl)cc2)cc1` [Compound I-2276, (E)-3-(4-chlorobenzyl)-4-(4-isopropoxyphenylimino)-1-isopropyl-3,4-dihydro-1,3,5-triazine-2(1H)-one], the IC50 was 778 nM.
As to `CCn1c(=O)[nH]/c(=N\c2ccc(O[C@H]3CN[C@H](C(=O)OC)C3)cc2)n(Cc2ccc(Cl)cc2)c1=O` [Compound I-2277], the IC50 was found to be 107 nM.
In the case of `CCn1c(=O)[nH]/c(=N\c2ccc(Oc3ccc(C(=O)O)nc3)cc2)n(Cc2ccc(Cl)cn2)c1=O` [Compound I-2278] it was 136 nM.
In the case of `CCn1c(=O)[nH]/c(=N\c2ccc(Oc3ccc(C(N)=O)nc3)cc2)n(Cc2ccc(Cl)cn2)c1=O` [Compound I-2279] it was 33 nM; in that of `CCn1c(=O)[nH]/c(=N\c2ccc3nc(N4CCC4)sc3c2)n(Cc2ccc(Cl)cc2)c1=O` [Compound I-2280], 127 nM; in that of `CCn1c(=O)[nH]/c(=N\c2ccc(Oc3cnc(C#N)nc3)cc2)n(Cc2ccc(Cl)cc2)c1=O` [Compound I-2281], 2 nM.
Turning to `CCn1c(=O)[nH]/c(=N\c2ccc(Oc3cncc(C(=O)O)n3)cc2)n(Cc2ccc(Cl)cc2)c1=O` [Compound I-2282], the IC50 is under 4 nM.
With `CCn1c(=O)[nH]/c(=N\c2ccc(Oc3cncc(C(N)=O)n3)cc2)n(Cc2ccc(Cl)cc2)c1=O` [Compound I-2284] the figure was under 4 nM.
With `CCn1c(=O)[nH]/c(=N\c2ccc(Oc3cnc(C(=O)O)nc3)cc2)n(Cc2ccc(Cl)cc2)c1=O` [Compound I-2285] the figure was 15 nM; with `CCn1c(=O)[nH]/c(=N\c2ccc(Oc3ccsn3)cc2)n(Cc2ccc(Cl)cc2)c1=O` [Compound I-2286], 5 nM; with `CC1(C)OCC(Cn2c(=O)[nH]/c(=N\c3ccc(Oc4ccon4)cc3)n(Cc3ccc(Cl)cc3)c2=O)CO1` [Compound I-2287], under 4 nM.
In the case of `O=c1[nH]/c(=N\c2ccc(Oc3ccon3)cc2)n(Cc2ccc(Cl)cc2)c(=O)n1CCOC1CCCCO1` (centres unmarked) [Compound I-2288] it was 1 nM; in that of `CC1(C)OC[C@H](Cn2c(=O)[nH]/c(=N\c3ccc(Oc4ccon4)cc3)n(Cc3ccc(Cl)cc3)c2=O)O1` [Compound I-2289], under 4 nM.
Regarding `O=c1[nH]/c(=N\c2ccc(Oc3nccs3)cc2)n(Cc2ccc(Cl)cc2)c(=O)n1C[C@H](O)CO` [Compound I-2294], the IC50 worked out at 5 nM.
In the case of `CCn1c(=O)[nH]/c(=N\c2ccc(Oc3ccnc(C(=O)O)c3)c(OC)c2)n(Cc2ccc(Cl)cc2)c1=O` [Compound I-2295] it was under 4 nM; in that of `CCn1c(=O)[nH]/c(=N\c2ccc(Oc3cnc(C(=O)O)cn3)cc2)n(Cc2ccc(Cl)cc2)c1=O` [Compound I-2296], 5 nM; in that of `CCn1c(=O)[nH]/c(=N\[C@H]2CC[C@H](Oc3ccnc(C(=O)O)c3)CC2)n(Cc2ccc(Cl)cc2)c1=O` [Compound I-2297], 65 nM.
In the case of `CCn1c(=O)[nH]/c(=N\c2ccc(Oc3cc(C#N)ccn3)cc2)n(Cc2ccc(C)cc2)c1=O` [Compound I-2300] it was 3 nM; in that of `CSc1n/c(=N\c2ccc(OC(C)C)cc2)n(Cc2ccc(Cl)cc2)c(=O)n1C(C)C` [Compound I-2301], 437 nM.
With `CCn1c(=O)[nH]/c(=N\c2ccc(Oc3cccc(C#N)n3)cc2)n(Cc2ccc(Cl)cc2)c1=O` [Compound I-2302] the figure was 2 nM; with `CCn1c(=O)[nH]/c(=N\c2ccc(Oc3cc(C(=O)O)ccn3)cc2)n(Cc2ccc(C)cc2)c1=O` [Compound I-2303], 7 nM.
`CCn1c(=O)[nH]/c(=N\c2ccc(Oc3ccnc(NC(=O)OC(C)(C)C)c3)cc2)n(Cc2ccc(Cl)cc2)c1=O` [Compound I-2304]: the IC50 stood at 29 nM.
In the case of `CCn1c(=O)[nH]/c(=N\c2ccc(Oc3cccc(C#N)c3)cc2)n(Cc2ccc(Cl)cc2)c1=O` [Compound I-2305, 1-(4-chlorobenzyl)-6-[4-(3-cyanophenoxy)phenylimino]-3-ethyl-1,3,5-triazinane-2,4-dion] it was 4 nM.
In the case of `CCn1c(=O)[nH]/c(=N\c2ccc(Oc3ccc(C#N)cn3)cc2)n(Cc2ccc(Cl)cc2)c1=O` [Compound I-2306] it was 2 nM.
In the case of `COC(=O)c1cncc(Oc2ccc(/N=c3\[nH]c(=O)n(C4CC4)c(=O)n3Cc3ccc(Cl)cc3)cc2)c1` [Compound I-2308] it was 3 nM; in that of `CNC(=O)c1cc(Oc2ccc(/N=c3\[nH]c(=O)n(C4CC4)c(=O)n3Cc3ccc(Cl)cc3)cc2)ccn1` [Compound I-2309], 2 nM.
With `CCn1c(=O)[nH]/c(=N\c2ccc(Oc3ccnc(C#N)n3)cc2)n(Cc2ccc(Cl)cc2)c1=O` [Compound I-2310], the IC50 was 5 nM.
